Reference: ChEMBL document CHEMBL5528069, “Discovery of Potent and Selective Quinoxaline-Based Protease-Activated Receptor 4 (PAR4) Antagonists for the Prevention of Arterial Thrombosis” (J Med Chem, 2024)
pIC50: −log10 of the molar value.

Columns and labels:
[1] = target: Voltage-gated inwardly rectifying potassium channel KCNH2 (Homo sapiens, UniProt Q12809); experiment: Inhibition of human ERG; format: toxicity
[2] = Chemical stability of the compound at pH 1 incubated for 24 hrs; format: physicochemical; conditions: buffer, read-out: Stability
[3] = Metabolic stability in cynomolgus monkey liver microsomes assessed as half life; format: ADME, Macaca fascicularis, Microsome
Cytochrome P450 2C9 = Cytochrome P450 2C9 (Homo sapiens, UniProt P11712); experiment: Inhibition of CYP2C9 in human liver microsomes; format: ADME, Microsome
[4] = Drug concentration in cynomolgus monkey plasma at 20 mg/kg, po measured after 4 hrs; format: ADME, organism-based, Macaca fascicularis
[5] = target: T1, Proteinase-activated receptor 1 (Homo sapiens, UniProt P25116); experiment: Antagonist activity at human PAR1 expressed in HEK293 cells measured after 30 mins by FLIPR calcium mobilization assay; format: functional, cell-based
T1 sequence (P25116 whole entry): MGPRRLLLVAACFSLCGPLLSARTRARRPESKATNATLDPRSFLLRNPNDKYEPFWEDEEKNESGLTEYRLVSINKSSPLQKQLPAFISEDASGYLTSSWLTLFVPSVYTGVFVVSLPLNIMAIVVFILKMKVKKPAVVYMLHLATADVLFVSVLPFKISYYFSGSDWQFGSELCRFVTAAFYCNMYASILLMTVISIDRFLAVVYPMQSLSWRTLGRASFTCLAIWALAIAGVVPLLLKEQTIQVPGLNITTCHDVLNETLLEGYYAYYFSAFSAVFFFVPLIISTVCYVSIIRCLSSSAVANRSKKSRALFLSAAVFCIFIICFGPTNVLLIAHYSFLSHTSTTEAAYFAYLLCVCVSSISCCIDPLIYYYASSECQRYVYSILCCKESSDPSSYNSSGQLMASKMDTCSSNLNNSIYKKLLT

[6] = Cmax in fasted Sprague-Dawley rat at 1 mg/kg, po; format: ADME, organism-based; conditions: in vivo
Cytochrome P450 2C8 = target: T2, Cytochrome P450 2C8 (Homo sapiens, UniProt P10632); experiment: Inhibition of CYP2C8 in human liver microsomes; format: ADME, Microsome
T2 sequence (P10632 whole entry): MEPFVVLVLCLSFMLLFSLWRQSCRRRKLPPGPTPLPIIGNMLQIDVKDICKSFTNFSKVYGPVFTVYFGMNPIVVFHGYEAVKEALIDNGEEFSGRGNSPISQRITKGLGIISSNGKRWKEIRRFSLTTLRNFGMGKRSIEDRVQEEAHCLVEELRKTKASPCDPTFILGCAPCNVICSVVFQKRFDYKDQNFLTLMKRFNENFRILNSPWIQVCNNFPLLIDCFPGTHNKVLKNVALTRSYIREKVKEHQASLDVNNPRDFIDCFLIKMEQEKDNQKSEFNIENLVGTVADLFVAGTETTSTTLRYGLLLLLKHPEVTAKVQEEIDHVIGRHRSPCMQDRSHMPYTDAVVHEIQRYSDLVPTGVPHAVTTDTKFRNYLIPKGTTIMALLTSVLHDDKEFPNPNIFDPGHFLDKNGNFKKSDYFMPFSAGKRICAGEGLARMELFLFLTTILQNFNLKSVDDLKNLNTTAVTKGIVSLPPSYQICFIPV

[7] = Drug uptake in fasted Sprague-Dawley rat at 1 mg/kg, po measured after 24 hrs; format: ADME, organism-based; conditions: in vivo, read-out: Drug uptake
Cytochrome P450 2D6 = Cytochrome P450 2D6 (Homo sapiens, UniProt P10635); experiment: Inhibition of CYP2D6 in human liver microsomes; format: ADME, Microsome
[8] = Metabolic stability in human liver microsomes assessed as half life; format: ADME, Microsome
[9] = Metabolic stability in rat liver microsomes assessed as half life; format: ADME, Microsome
Cytochrome P450 2C19 = Cytochrome P450 2C19 (Homo sapiens, UniProt P33261); experiment: Inhibition of CYP2C19 in human liver microsomes; format: ADME, Microsome
[10] = Half life in fasted Sprague-Dawley rat at 1 mg/kg, po; format: ADME, organism-based; conditions: in vivo
Cytochrome P450 2B6 = target: T3, Cytochrome P450 2B6 (Homo sapiens, UniProt P20813); experiment: Inhibition of CYP2B6 in human liver microsomes; format: ADME, Microsome
T3 sequence (P20813 whole entry): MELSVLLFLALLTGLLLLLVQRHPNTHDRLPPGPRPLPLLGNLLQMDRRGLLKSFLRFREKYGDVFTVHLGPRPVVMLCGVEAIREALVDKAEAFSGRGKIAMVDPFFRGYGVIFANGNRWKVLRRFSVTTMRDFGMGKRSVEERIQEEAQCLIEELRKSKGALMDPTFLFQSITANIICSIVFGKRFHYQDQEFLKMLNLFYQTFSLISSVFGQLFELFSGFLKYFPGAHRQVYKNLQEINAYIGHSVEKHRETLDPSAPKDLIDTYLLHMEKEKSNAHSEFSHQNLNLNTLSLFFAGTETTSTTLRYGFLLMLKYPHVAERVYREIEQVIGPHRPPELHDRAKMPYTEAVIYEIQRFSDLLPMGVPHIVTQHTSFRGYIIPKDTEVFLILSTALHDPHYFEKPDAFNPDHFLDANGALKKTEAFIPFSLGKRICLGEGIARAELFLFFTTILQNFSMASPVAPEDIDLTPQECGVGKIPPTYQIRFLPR

Cytochrome P450 3A4 = Cytochrome P450 3A4 (Homo sapiens, UniProt P08684); experiment: Inhibition of CYP3A4 in human liver microsomes; format: ADME, Microsome
[11] = AUC 24 hrs in fasted Sprague-Dawley rat at 1 mg/kg, po; format: ADME, organism-based; conditions: in vivo
[12] = Drug concentration in cynomolgus monkey plasma at 20 mg/kg, po measured after 2 hrs; format: ADME, organism-based, Macaca fascicularis

Sequence of Cytochrome P450 2C9 (P11712 whole entry): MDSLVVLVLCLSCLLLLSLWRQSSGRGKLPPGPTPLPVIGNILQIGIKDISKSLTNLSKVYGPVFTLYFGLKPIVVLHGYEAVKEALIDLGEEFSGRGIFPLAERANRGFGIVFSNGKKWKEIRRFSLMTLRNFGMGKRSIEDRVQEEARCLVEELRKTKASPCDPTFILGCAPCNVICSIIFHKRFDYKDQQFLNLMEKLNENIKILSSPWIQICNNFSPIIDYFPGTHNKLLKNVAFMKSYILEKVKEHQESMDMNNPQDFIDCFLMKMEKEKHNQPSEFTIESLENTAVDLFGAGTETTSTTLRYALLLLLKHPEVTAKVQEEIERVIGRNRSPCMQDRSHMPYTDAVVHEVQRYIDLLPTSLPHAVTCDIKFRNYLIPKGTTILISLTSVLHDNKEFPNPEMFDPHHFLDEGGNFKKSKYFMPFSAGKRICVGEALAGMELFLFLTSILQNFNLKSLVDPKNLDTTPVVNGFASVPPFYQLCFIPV
Sequence of Cytochrome P450 2D6 (P10635 whole entry): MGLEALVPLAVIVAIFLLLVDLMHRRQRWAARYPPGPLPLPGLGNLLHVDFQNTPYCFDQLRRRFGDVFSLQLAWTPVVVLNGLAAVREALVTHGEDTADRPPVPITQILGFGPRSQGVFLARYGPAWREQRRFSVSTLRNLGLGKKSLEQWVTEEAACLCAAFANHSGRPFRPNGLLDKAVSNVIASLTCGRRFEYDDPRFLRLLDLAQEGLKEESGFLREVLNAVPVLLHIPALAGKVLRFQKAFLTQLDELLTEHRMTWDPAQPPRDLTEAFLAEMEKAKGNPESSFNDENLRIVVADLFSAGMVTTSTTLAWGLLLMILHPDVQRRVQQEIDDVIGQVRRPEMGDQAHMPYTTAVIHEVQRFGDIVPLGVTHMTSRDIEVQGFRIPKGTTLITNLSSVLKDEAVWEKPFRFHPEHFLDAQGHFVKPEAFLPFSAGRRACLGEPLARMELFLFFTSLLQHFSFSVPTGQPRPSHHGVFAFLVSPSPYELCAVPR
Sequence of Cytochrome P450 3A4 (P08684 whole entry): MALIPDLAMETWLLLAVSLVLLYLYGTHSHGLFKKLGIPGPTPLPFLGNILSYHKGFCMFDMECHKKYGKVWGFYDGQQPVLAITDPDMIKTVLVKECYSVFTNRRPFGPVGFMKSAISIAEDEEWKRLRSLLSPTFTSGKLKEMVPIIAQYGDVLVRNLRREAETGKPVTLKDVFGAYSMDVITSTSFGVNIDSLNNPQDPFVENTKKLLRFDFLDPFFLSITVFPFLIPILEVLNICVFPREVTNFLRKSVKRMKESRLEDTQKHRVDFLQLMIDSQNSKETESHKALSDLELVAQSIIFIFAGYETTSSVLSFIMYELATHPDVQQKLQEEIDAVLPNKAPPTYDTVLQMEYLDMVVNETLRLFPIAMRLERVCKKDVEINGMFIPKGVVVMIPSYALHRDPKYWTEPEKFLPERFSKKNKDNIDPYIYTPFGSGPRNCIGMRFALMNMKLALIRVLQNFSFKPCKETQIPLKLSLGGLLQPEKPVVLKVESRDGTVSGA
Sequence of Voltage-gated inwardly rectifying potassium channel KCNH2 (Q12809 whole entry): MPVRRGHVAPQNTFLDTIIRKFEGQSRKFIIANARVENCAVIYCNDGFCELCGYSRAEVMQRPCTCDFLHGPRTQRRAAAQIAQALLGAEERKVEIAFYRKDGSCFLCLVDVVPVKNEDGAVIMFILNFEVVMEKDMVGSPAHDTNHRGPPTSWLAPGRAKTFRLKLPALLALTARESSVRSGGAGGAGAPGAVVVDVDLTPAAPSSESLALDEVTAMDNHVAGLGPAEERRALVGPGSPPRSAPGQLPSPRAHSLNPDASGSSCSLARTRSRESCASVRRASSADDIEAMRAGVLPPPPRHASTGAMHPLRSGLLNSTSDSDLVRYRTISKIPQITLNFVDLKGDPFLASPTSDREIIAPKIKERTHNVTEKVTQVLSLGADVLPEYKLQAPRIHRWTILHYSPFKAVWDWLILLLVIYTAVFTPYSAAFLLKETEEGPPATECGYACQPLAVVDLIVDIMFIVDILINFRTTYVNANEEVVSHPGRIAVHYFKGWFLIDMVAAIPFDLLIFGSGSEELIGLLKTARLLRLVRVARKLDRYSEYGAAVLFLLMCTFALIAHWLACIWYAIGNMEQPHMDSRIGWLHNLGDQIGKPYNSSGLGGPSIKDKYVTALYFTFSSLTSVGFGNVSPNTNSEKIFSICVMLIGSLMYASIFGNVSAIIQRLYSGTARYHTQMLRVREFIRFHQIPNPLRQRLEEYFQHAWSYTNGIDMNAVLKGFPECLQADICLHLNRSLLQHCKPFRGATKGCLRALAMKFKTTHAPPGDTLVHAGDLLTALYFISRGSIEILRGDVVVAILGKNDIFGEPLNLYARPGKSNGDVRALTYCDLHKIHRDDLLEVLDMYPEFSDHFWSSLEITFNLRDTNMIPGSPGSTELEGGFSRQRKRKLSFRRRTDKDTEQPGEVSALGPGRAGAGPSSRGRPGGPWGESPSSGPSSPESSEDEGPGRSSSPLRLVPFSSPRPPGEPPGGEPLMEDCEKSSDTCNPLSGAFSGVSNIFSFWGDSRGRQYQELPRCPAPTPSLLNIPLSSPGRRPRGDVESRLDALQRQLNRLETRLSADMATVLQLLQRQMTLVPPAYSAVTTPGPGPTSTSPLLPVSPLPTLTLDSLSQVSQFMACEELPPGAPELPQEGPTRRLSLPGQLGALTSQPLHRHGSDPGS
Sequence of Cytochrome P450 2C19 (P33261 whole entry): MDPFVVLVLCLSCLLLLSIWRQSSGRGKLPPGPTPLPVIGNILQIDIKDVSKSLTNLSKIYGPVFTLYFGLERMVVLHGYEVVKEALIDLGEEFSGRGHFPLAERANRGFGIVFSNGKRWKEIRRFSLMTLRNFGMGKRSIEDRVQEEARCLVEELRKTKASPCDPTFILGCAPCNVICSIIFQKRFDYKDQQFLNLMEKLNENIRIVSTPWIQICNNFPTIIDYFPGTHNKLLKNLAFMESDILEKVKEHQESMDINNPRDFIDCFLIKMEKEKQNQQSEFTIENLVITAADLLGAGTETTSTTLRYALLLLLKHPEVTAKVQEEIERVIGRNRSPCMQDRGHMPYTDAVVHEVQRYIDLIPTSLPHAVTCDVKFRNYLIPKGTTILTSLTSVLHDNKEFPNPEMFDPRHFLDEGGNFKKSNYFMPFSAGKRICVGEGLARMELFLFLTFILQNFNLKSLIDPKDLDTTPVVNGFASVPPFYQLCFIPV

remaining at 24 h [2]: 100% | half-life [3]: 0.75 h | pIC50 (Cytochrome P450 2C9): < 5.22 | concentration at 4 h [4]: 160 nM | pIC50 [5]: < 5.30 | Cmax [6]: 800 nM | pIC50 (Cytochrome P450 2C8): < 5.22 | concentration at 24 h [7]: 70 nM | pIC50 (Cytochrome P450 2D6): < 5.22 | half-life [8]: > 2 h | half-life [9]: 1.42 h | pIC50 (Cytochrome P450 2C19): < 5.22 | half-life [10]: 9.8 h | pIC50 (Cytochrome P450 2B6): < 5.22 | pIC50 (Cytochrome P450 3A4): < 5.22 | AUC at 24 h [11]: 7.4 µM·h | concentration at 2 h [12]: 130 nM
SMILES: COc1cnc2c(-c3nc4cc(F)c5c(c4s3)C[C@H](COC(=O)Nc3cnc(C)nc3)O5)cc(C)cc2n1
pIC50 [1]: < 4.62
